Measurements published in patent US20220402916A1, “SMALL MOLECULE INHIBITORS OF KRAS G12C MUTANT” (Merck Sharp & Dohme Corp., priority 2019, published 2022).

Legend:
NCI-H358 cells = test: Cellular phospho-ERK assay; format: cell-based; conditions: Homo sapiens, NCI-H358, 2 h, NCI-H358 cells; 2 hour incubation; ratio of p-Erk vs total Erk; read-out: IC50
Experimental: NCI-H358 cells (ATCC® CRL-5807™) were cultured in T150 flask in growth medium (RPMI medium 1640-GlutaMAX™-1 (ThermoFisher Scientific 61870) containing 10% fetal bovine serum (ThermoFisher Scientific 10091148)). The cells were harvested in growth medium after TrypLE (ThermoFisher scientific 12604021) digestion and were seeded in 384-well collagen coated cell culture plate (Corning 356702) at a density of 15,000 cells/well, and incubated at 37° C., 5% CO2 overnight. The compound dose-response titrations were prepared and appropriate amounts of compounds were dispensed in 384-well intermediate plate using Echo 550 liquid handler. RPMI medium 1640-GlutaMAX™-I were added to the intermediate plate and transferred to 384-well cell culture plate, which was incubated at 37° C., 5% CO2 for 2 hours. After removal of medium from the plate, cells were lysed in lysis buffer from Alpha SureFire® Ultra™ Multiplex p-Erk and total Erk assay kit (PerkinElmer MPSU-PTERK) containing Halt™ Protease and Phosphotase inhibitor cocktail (ThermoFisher Scientific 78446) at room temperature with constant shaking at 300 rpm for 30 minutes. The cell lysates were then transferred to OptiPlate-384 plate (PerkinElmer 6005620) and the phosphorylation of Erk and total Erk levels were detected by Alpha SureFire Ultra Multiplex p-Erk kit (PerkinElmer MPSU-PTERK) following the manufacturer's protocol. Assay plates were read on an EnVision Multimode Plate Reader (PerkinElmer) and the ratio of p-Erk vs total Erk in each well was used as the final readout. Dose response curves were analyzed using a 4-parameter logistic model to calculate IC50 values using spotfire software.

[1] = target: T1, Biotinylated KRAS G12C protein (Homo sapiens, UniProt P01116, C118S/C51S/C80L/G12C); test: SOS-catalyzed nucleotide exchange assay; format: biochemical; conditions: for IC50: apparent potency, preincubation time of 60 minutes prior to addition of SOS; for inhibition at 10 µM: 10,000 nM, 60 minutes of preincubation prior to addition of SOS
T1 construct: 183 amino acids; biotin on K10
Experimental: Compounds are added to this complex, and then after 60 minute incubation time the mixture is treated with recombinant SOS protein and unlabeled GTP. Small molecule inhibitors stabilize the Bodipy-GDP complex whereas the untreated protein rapidly exchanges Bodipy-GDP for unlabeled GTP resulting in reduced TR-FRET signal. […] This mixture is then further diluted to 90 nM in an assay buffer (20 mM HEPES, 150 mM sodium chloride, 10 mM magnesium chloride, and 0.005% Tween) containing 15 nM of Terbium-Streptavidin (Invitrogen, catalog #PV3577) and 900 nM of Bodipy-GDP and incubated at room temperature for six hours. […] Each test compound (10 mM stock in DMSO) is diluted in DMSO to make a 10-point, 3-fold dilution series in a 384-well low dead volume microplate (Labcyte, catalog #LP-0200). Once titrations are made, 10 nL of the diluted compounds is acoustically dispensed into a 384-well assay plate (Corning, catalog #3820) using an Echo 550 (Labcyte). […] Each well then receives 3 μL of 240 nM recombinant human SOS protein and 9 mM GTP (Sigma, G8877) in assay buffer and is incubated at room temperature for 60 minutes. The time-resolved fluorescence resonance energy transfer signal for the assay plate is measured on an Envision (PerkinElmer) plate reader: Excitation filter=340 nm; emission1=495 nm; emission2=520 nm; dichroic mirror=D400/D505; delay time=100 μs. The signal of each well is determined as the ratio of the emission at 520 nm to that at 495 nm. […] The apparent effect as a function of compound concentration is fit to a four parameter logistic equation.

T1 sequence (P01116 with tags, fused parts or gaps isoform P01116-2 G12C/C51S/C80L/C118S): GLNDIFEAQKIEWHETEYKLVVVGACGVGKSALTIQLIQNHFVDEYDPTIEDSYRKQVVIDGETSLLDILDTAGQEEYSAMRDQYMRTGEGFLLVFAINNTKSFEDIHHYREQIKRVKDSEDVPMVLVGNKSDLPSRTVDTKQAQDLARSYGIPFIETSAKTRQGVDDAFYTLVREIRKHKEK

Row | SMILES | IC50 (NCI-H358 cells) [µM] | IC50 [1] [nM] | inhibition at 10 µM [1] [%]
1 | C=CC(=O)N1CCN(c2cc(C(=O)N[C@@H]3CCC[C@H]3N(C)C)nc3c2CCN(c2cccc4cccc(C)c24)C3)C[C@@H]1CC#N (mixture of isomers) [Compound 66, 4-((S)-4-acryloyl-3-(cyanomethyl)piperazin-1-yl)-N-((1R,2R)-2-(dimethylamino)cyclopentyl)-7-(8-methylnaphthalen-1-yl)-5,6,7,8-tetrahydro-1,7-naphthyridine-2-carboxamide, as a mixture with 4-((S)-4-acryloyl-3-(cyanomethyl)piperazin-1-yl)-N-((1S,2S)-2-(dimethylamino)cyclopentyl)-7-(8-methylnaphthalen-1-yl)-5,6,7,8-tetrahydro-1,7-naphthyridine-2-carboxamide] | 0.041 | 1 | –
2 | C=CC(=O)N1CCN(c2cc(C(=O)NC(CC)CN3CCCC3)nc3c2CCN(c2cccc4cccc(C)c24)C3)CC1 (racemic) [Compound 23, rac-4-(4-acryloylpiperazin-1-yl)-7-(8-methylnaphthalen-1-yl)-N-(1-(pyrrolidin-1-yl)butan-2-yl)-5,6,7,8-tetrahydro-1,7-naphthyridine-2-carboxamide] | 9.77 | 90 | –
3 | C=CC(=O)N1CCN(c2cc(C(=O)NCC3CCCN3C)nc3c2CCN(c2cccc4cccc(C)c24)C3)C[C@@H]1CC#N (mixture of isomers) [Compound 82, 4-((S)-4-acryloyl-3-(cyanomethyl)piperazin-1-yl)-7-(8-methylnaphthalen-1-yl)-N-(((R)-1-methylpyrrolidin-2-yl)methyl)-5,6,7,8-tetrahydro-1,7-naphthyridine-2-carboxamide, as a mixture with 4-((S)-4-acryloyl-3-(cyanomethyl)piperazin-1-yl)-7-(8-methylnaphthalen-1-yl)-N-(((S)-1-methylpyrrolidin-2-yl)methyl)-5,6,7,8-tetrahydro-1,7-naphthyridine-2-carboxamide] | 0.324 | – | –
4 | C=CC(=O)N1CCN(c2c(C)c(C(=O)N[C@H](C)CN(C)C)nc3c2CCN(c2cccc4cccc(C)c24)C3)C[C@@H]1CC#N (racemic) [Compound 85, 4-((S)-4-acryloyl-3-(cyanomethyl)piperazin-1-yl)-N—((R)-1-(dimethylamino)propan-2-yl)-3-methyl-7-(8-methylnaphthalen-1-yl)-5,6,7,8-tetrahydro-1,7-naphthyridine-2-carboxamide] | 3.55 | 180 | –
5 | C=CC(=O)N1CCN(c2cc(C(=O)NCC3CCCCN3)nc3c2CCN(c2cccc4cccc(C)c24)C3)C[C@@H]1CC#N (mixture of isomers) [Compound 99, 4-((S)-4-acryloyl-3-(cyanomethyl)piperazin-1-yl)-7-(8-methylnaphthalen-1-yl)-N-(((R)-piperidin-2-yl)methyl)-5,6,7,8-tetrahydro-1,7-naphthyridine-2-carboxamide, as a mixture with 4-((S)-4-acryloyl-3-(cyanomethyl)piperazin-1-yl)-7-(8-methylnaphthalen-1-yl)-N-(((S)-piperidin-2-yl)methyl)-5,6,7,8-tetrahydro-1,7-naphthyridine-2-carboxamide] | 1.74 | 8.3 | –
6 | C=CC(=O)N1CCN(c2cc(C(=O)N[C@H]3CCCC[C@@H]3N)nc3c2CCN(c2cccc4cccc(C)c24)C3)CC1 [Compound 30, 4-(4-acryloylpiperazin-1-yl)-N-((1S,2S)-2-aminocyclohexyl)-7-(8-methylnaphthalen-1-yl)-5,6,7,8-tetrahydro-1,7-naphthyridine-2-carboxamide] | – | 4900 | –
7 | C=CC(=O)N1CCN(c2cc(C(=O)N[C@@H]3CCCC[C@H]3N)nc3c2CCN(c2cccc4cccc(C)c24)C3)CC1 [Compound 31, 4-(4-acryloylpiperazin-1-yl)-N-((1R,2R)-2-aminocyclohexyl)-7-(8-methylnaphthalen-1-yl)-5,6,7,8-tetrahydro-1,7-naphthyridine-2-carboxamide] | – | 426 | –
8 | C=CC(=O)N1CCN(c2cc(C(=O)N3CCC[C@H]3CN3CCCC3)nc3c2CCN(c2cccc4cccc(C)c24)C3)CC1 [Compound 41, (S)-1-(4-(7-(8-methylnaphthalen-1-yl)-2-(2-(pyrrolidin-1-ylmethyl)pyrrolidine-1-carbonyl)-5,6,7,8-tetrahydro-1,7-naphthyridin-4-yl)piperazin-1-yl)prop-2-en-1-one] | – | 9590 | –
9 | C=CC(=O)N1CCN(c2cc(C(=O)N3CCC[C@@H]3CN3CCCC3)nc3c2CCN(c2cccc4cccc(C)c24)C3)CC1 [Compound 42, (R)-1-(4-(7-(8-methylnaphthalen-1-yl)-2-(2-(pyrrolidin-1-ylmethyl)pyrrolidine-1-carbonyl)-5,6,7,8-tetrahydro-1,7-naphthyridin-4-yl)piperazin-1-yl)prop-2-en-1-one] | – | 3770 | –
10 | C=CC(=O)N1CCN(c2cc(C(=O)N3CCC[C@@H]3CN3CCC(=O)N3)nc3c2CCN(c2cccc4cccc(C)c24)C3)CC1 [Compound 43, (R)-1-((1-(4-(4-acryloylpiperazin-1-yl)-7-(8-methylnaphthalen-1-yl)-5,6,7,8-tetrahydro-1,7-naphthyridine-2-carbonyl)pyrrolidin-2-yl)methyl)pyrazolidin-3-one] | – | – | 33
11 | C=CC(=O)N1CCN(c2cc(C(=O)NC3CN(C)C3)nc3c2CCN(c2cccc4cccc(C)c24)C3)CC1 [Compound 48, 4-(4-acryloylpiperazin-1-yl)-N-(1-methylazetidin-3-yl)-7-(8-methylnaphthalen-1-yl)-5,6,7,8-tetrahydro-1,7-naphthyridine-2-carboxamide] | – | 7290 | –
12 | C=CC(=O)N1CCN(c2cc(C(=O)N[C@H]3CCN(C)C3)nc3c2CCN(c2cccc4cccc(C)c24)C3)CC1 [Compound 49, (S)-4-(4-acryloylpiperazin-1-yl)-7-(8-methylnaphthalen-1-yl)-N-(1-methylpyrrolidin-3-yl)-5,6,7,8-tetrahydro-1,7-naphthyridine-2-carboxamide] | – | 2180 | –
13 | C=CC(=O)N1CCN(c2cc(C(=O)N[C@@H]3CCN(C)C3)nc3c2CCN(c2cccc4cccc(C)c24)C3)CC1 [Compound 50, (R)-4-(4-acryloylpiperazin-1-yl)-7-(8-methylnaphthalen-1-yl)-N-(1-methylpyrrolidin-3-yl)-5,6,7,8-tetrahydro-1,7-naphthyridine-2-carboxamide] | – | 3570 | –
14 | C=CC(=O)N1CCN(c2cc(C(=O)NC3CCN(C)CC3)nc3c2CCN(c2cccc4cccc(C)c24)C3)CC1 [Compound 54, 4-(4-acryloylpiperazin-1-yl)-7-(8-methylnaphthalen-1-yl)-N-(1-methylpiperidin-4-yl)-5,6,7,8-tetrahydro-1,7-naphthyridine-2-carboxamide] | – | 9150 | –
15 | C=CC(=O)N1C[C@H](C)N(c2cc(C(=O)NCCN(C)C)nc3c2CCN(c2cccc4cccc(C)c24)C3)C[C@H]1C [Compound 59, 4-((2S,5R)-4-acryloyl-2,5-dimethylpiperazin-1-yl)-N-(2-(dimethylamino)ethyl)-7-(8-methylnaphthalen-1-yl)-5,6,7,8-tetrahydro-1,7-naphthyridine-2-carboxamide] | – | – | 38
16 | C=CC(=O)N1CCN(c2cc(C(=O)N[C@@H]3[C@H](N)CCCC3(F)F)nc3c2CCN(c2cccc4cccc(C)c24)C3)C[C@@H]1CC#N [Compound 95, 4-((S)-4-acryloyl-3-(cyanomethyl)piperazin-1-yl)-N-((1R,6R)-6-amino-2,2-difluorocyclohexyl)-7-(8-methylnaphthalen-1-yl)-5,6,7,8-tetrahydro-1,7-naphthyridine-2-carboxamide] | – | 793 | –
